Test: Fluoroscopic video-radiography of taking a barium-filled No. 2 capsule, mouth to stomach
Assay type: in vivo
Conditions: patient with difficulty in swallowing; barium-filled No. 2 capsule with about 20 ml of drink
Method: First, the purpose of this test was explained to a patient (the person) who had difficulty in swallowing when taking medicines with water, and their consent was acquired.
Next, barium powder was filled up in a No. 2 capsule and the capsule was used as a placebo. The placebo was taken by the patient with about 20 ml of the swallowing-assistive drink of the present invention, while fluoroscopic video-radiographs of the conditions of taking this medicine were taken by scanning from the mouth to the stomach of the patient. The image information obtained was put into a personal computer and the time-course changes were analyzed as still image data of two sheets a second.

## O [water]
  time to move from the mouth to the stomach: about 18 sec

Source: patent USRE39125E1, “Swallowing-assistive drink” (Ryukakusan Co. LTD, priority 2000, dated 2006)
